Source: US20250353912A1, “COMPOSITIONS AND METHODS COMPRISING ANTIBODIES THAT BIND TO COVALENT PEPTIDE CONJUGATES” (New York University, priority 2022, published 2025)

Assays:
H358 cells = test: Cell viability following exposure to sotorasib for 72 hr; format: cell-based; details: 0.1 μM sotorasib, FIG. 43A
[1] = cited from earlier work
H2122 cells = test: Cell viability following exposure to sotorasib for 72 hr; format: cell-based; details: FIG. 43A
[2] = second line disease, versus docetaxel

**Q.** With C=CC(=O)N1CCN(c2nc(=O)n(-c3c(C)ccnc3C(C)C)c3nc(-c4c(O)cccc4F)c(F)cc23)[C@@H](C)C1 [sotorasib] as the compound, how does the “killing of H358 cells” value (H358 cells) read?
**A.** nearly all of the H358 cells were killed

**Q.** And the “patients removed from the study because of liver toxicity” value ([1]; in vivo)?
**A.** six patients

**Q.** And the “patients with drug-induced liver injury” value ([1]; in vivo)?
**A.** two patients

**Q.** What about the “patients with grade 3/4 liver toxicity” value ([1]; in vivo) of the same compound?
**A.** 10%

**Q.** What about the overall survival [1, 2] of the same compound?
**A.** no impact

**Q.** What about the progression-free survival [1, 2] of the same compound?
**A.** improved by one month

**Q.** And the “sotorasib concentration up to which H2122 is resistant” value (H2122 cells)?
**A.** ~10 µM
